Drawing on patent US20240124503A1, “HETEROAROMATIC PHOSPHONIUM SALTS AND THEIR USE TREATING CANCER” (FLORATEK PHARMA S.A., priority 2021, published 2024), this text covers IC50 and Kd for one compound.

One experiment relates to BT-474. Briefly: Cell viability assay, BT-474. Conditions: Homo sapiens; breast carcinoma cell line BT-474. Format: cell-based. The method, then: (§1) Antitumor activity of the compounds and doxorubicin as a positive control was assessed by using the CellTiter-Blue Cell Viability Assay (Promega, #G8082) or CellTiter-Glow® Luminescent Cell Viability assay (Promega #G7572) according to the manufacturer's instructions. The compounds were tested at 5 or 6 concentrations in half-log increments (highest concentration 30 μM or 100 μM) in duplicate or triplicate well conditions.
(§2) Tumor cells were grown at 37° C. in a humidified atmosphere with 5% CO2 in RPMI 1640 or DMEM medium, supplemented with 10% (v/v) fetal calf serum and 50 μg/ml gentamicin for up to 20 passages, and were passaged once or twice weekly. Cells were harvested using TrypLE or PBS buffer containing 1 mM EDTA, and the percentage of viable cells was determined using a CASY Model TI cell counter (OMNI Life Science). Cells were harvested from exponential phase cultures, counted and plated in 96 well flat-bottom microtiter plates at a cell density depending on the cell line's growth rate (4,000-20,000 cells/well depending on the cell line's growth rate, up to 60,000 for hematological cancer cell lines) in RPMI 1640 or DMEM medium supplemented with 10% (v/v) fetal calf serum and 50 μg/ml gentamicin (140 μl/well). […] Viability of cells was quantified by the CellTiter-Blue® cell viability assay (Promega G8081) or CellTiter-Glow® Luminescent Cell Viability assay (Promega #G7572). […]

The subject of the next experiment is ZR-75-1. Briefly: Cell viability assay, ZR-75-1. Conditions: Homo sapiens; breast carcinoma cell line ZR-75-1. Format: cell-based. Here is the method:
as §1, §2

Another experiment relates to colon cancer cell. Briefly: Cell viability, colon cancer cells (panel statement). Conditions: summary of Table 6; read-out: IC50, colon cancer cell growth. Format: cell-based. The method, then: as §1, §2
A further experiment relates to parental H69 cells. Briefly: Cell viability assay, parental H69 cells. Format: cell-based. Conditions: Homo sapiens, NCI-H69; parental H69 cells (SCLC). The method, then:
as §1, §2

Another experiment has as its target T1, KIT(D816V) (Homo sapiens, UniProt P10721, D816V).
T1 construct: purchased Eurofins (KINOMEscan); host or cells: E. coli BL21-derived host (T7 phage) or HEK-293
Briefly: KINOMEscan competition binding, KIT(D816V). Here is the method:
Selected compounds were screened for kinase inhibition using the KINOMEscan™ assay (Eurofins) which is based on a competition binding assay that quantitatively measures the ability of a compound to compete with an immobilized, active-site directed ligand. The assay was performed by combining three components: DNA-tagged kinase; immobilized ligand; and the test compound. The ability of the test compound to compete with the immobilized ligand was measured via quantitative PCR of the DNA tag.
Kinase-tagged T7 phage strains were prepared in an E. coli host derived from the BL21 strain. E. coli were grown to log-phase and infected with T7 phage and incubated with shaking at 32° C. until lysis. The lysates were centrifuged and filtered to remove cell debris. The remaining kinases were produced in HEK-293 cells and subsequently tagged with DNA for qPCR detection. Streptavidin-coated magnetic beads were treated with biotinylated small molecule ligands for 30 minutes at room temperature to generate affinity resins for kinase assays. […] Kds were determined using an 11-point 3-fold compound dilution series with three DMSO control points. […] The kinase concentration in the eluates was measured by qPCR. […]
Binding constants (Kds) were calculated with a standard dose-response curve using the Hill equation: Response=Background+[Signal−Background/1+(Kd^Hill Slope/Dose^Hill Slope)] […]

The next experiment relates to MDA-MB-231. Briefly: Cell viability assay, MDA-MB-231. Format: cell-based. Conditions: Homo sapiens; breast carcinoma cell line MDA-MB-231. The method, then:
as §1, §2

A further experiment deals with brain cancer cell. Briefly: Cell viability, brain cancer cells (panel statement). Conditions: text summary of Tables 3A-3C; read-out: IC50, brain cancer cell growth. Format: cell-based. The method, then: as §1, §2
Another experiment relates to prostate cancer cell. Briefly: Cell viability, prostate cancer cells (panel statement). Format: cell-based. Conditions: summary of Table 20; read-out: IC50, prostate cancer cell growth. Here is the method:
as §1, §2

Another experiment deals with lung carcinoma cell. Briefly: Cell viability, lung carcinoma cells (panel statement). Format: cell-based. Conditions: summary of Table 13; read-out: IC50, lung carcinoma cell growth. The method, then: as §1, §2
Another experiment has as its system HCC1806. Briefly: Cell viability assay, HCC1806. Format: cell-based. Conditions: Homo sapiens; breast carcinoma cell line HCC1806. Here is the method:
as §1, §2

In the next experiment the test system is A549. Briefly: Cell viability assay, A549. Format: cell-based. Conditions: Homo sapiens; lung carcinoma cell line A549. Here is the method: as §1, §2
The next experiment concerns NCI-H460. Briefly: Cell viability assay, NCI-H460. Format: cell-based. Conditions: Homo sapiens; lung carcinoma cell line NCI-H460. Here is the method: as §1, §2

Each structure is given as a SMILES string. A value given as a limit tells only on which side of the number the result lay.

T1 sequence (P10721 26-976 D816V): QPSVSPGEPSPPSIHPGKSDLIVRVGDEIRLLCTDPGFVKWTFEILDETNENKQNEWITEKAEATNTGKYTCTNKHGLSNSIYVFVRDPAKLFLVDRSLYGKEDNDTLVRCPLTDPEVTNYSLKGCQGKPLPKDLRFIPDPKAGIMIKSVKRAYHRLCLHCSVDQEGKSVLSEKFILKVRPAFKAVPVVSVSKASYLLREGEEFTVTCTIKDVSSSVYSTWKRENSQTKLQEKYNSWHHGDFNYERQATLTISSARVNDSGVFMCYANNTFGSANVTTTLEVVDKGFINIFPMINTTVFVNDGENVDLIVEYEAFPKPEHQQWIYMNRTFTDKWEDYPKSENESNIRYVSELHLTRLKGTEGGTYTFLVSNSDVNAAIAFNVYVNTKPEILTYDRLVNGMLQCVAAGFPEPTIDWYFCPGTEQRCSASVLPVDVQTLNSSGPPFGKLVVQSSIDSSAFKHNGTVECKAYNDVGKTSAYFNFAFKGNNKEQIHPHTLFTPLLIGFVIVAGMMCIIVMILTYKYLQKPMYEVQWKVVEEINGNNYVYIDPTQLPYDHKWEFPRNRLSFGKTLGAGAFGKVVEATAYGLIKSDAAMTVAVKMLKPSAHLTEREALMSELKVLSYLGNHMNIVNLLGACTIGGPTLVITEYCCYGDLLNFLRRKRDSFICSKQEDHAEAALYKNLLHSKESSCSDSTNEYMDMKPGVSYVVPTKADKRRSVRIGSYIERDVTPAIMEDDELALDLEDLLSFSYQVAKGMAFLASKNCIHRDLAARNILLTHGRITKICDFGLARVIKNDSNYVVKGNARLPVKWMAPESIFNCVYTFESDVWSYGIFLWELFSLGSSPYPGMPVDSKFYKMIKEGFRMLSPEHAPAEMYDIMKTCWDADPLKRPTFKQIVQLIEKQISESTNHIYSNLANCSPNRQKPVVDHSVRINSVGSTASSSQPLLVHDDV

With `COc1c(O)ccc2c(=O)c(O)c(-c3ccc(CCCC[P+](c4ccccc4)(c4ccccc4)c4ccccc4)cc3)oc12` [SND190, (4-(4-(3,7-Dihydroxy-8-methoxy-4-oxo-4H1-chromen-2-yl)phenyl)butyl)triphenylphosphonium bromide], the IC50 in the experiment with BT-474 is 1.9 µM; in the experiment on ZR-75-1, 3.5 µM; in the experiment on colon cancer cell, < 20 µM; in the experiment on parental H69 cells, 1.42 µM; in the experiment with MDA-MB-231 it was 3.5 µM; in the experiment with brain cancer cell it was < 20 µM. Moreover, the IC50 in the experiment on prostate cancer cell was < 10 µM; with lung carcinoma cell it was < 20 µM; in the experiment with HCC1806 it was 2.8 µM; with A549, 13.8 µM; with NCI-H460, 8.63 µM. The compound also had a Kd on KIT(D816V) of 0.93 µM.

The IC50 is the concentration that inhibits the measured activity by half. A word on the Kd: it is the free concentration of one partner at which half of the binding sites on the other are occupied at equilibrium, for simple one-to-one binding.
